From patent US20150359802A1, “PARENTERAL PHARMACEUTICAL FORM WHICH RELEASES AROMATSE INHIBITOR AND GESTAGENS, FOR THE TREATMENT OF ENDOMETRIOSIS” (Bayer Intellectual Property GmbH, priority 2010, published 2015)
Entries after “also recorded” stand apart in the source; their conditions may differ. Like-named read-outs stand apart in the source and are kept apart here.

Key:
ovulation = settings: cited from earlier work
[1] = Plasma concentration of anastrozole after IVR administration and PK-based in vivo release; set-up: species or system female cynomolgus monkeys; settings: in vitro release in buffer vs calculated in vivo release, primate experiment
Description: The concentration of anastrozole in plasma samples was quantitatively determined by means of liquid-liquid extraction with liquid chromatography coupled to tandem mass spectrometry (LC/ESI-MS/MS). The analyses were carried out on an Agilent 1200 and an AB Sciex Triple Quad 5500 in positive ionization mode. For this purpose, 100 μl were initially taken from each plasma sample, admixed with 300 μl of an aqueous solution containing any non-structurally-related compound as internal standard, and extracted with 1.3 ml of methyl tert-butyl ether on a Perkin Elmer Mass Prep Station. […] 5 μl of this were injected into the LC/MS/MS, the m/z transition 294 ([M+H]+)→225 was recorded, and the signal was integrated with the AB Sciex Software Analyst 1.5. The concentrations of the plasma samples were determined from the resulting areas with the aid of a calibration curve present in the same sequence (0, 0.0500 to 1000 nM in plasma, n=2). […]
The mean plasma concentration (Css) of anastrozole was calculated as the mean value of all measured concentrations per dose group from the day after insertion of the IVR up to the end of the experiment.
The mean in vivo release rates (Rin) from the IVR were subsequently calculated according to the equation: Rin=Css*CL (see table X). […]

pituitary-ovarian axis = assay: IVR study in cynomolgus monkeys: estradiol, FSH and progesterone levels; type: in vivo, cynomolgus monkey
Excerpt: (§1) This comprises, among other things, cycle length, hormone receptors, morphology, endocrine system and regulation of the pituitary-ovarian axis (Borghi, M. R., R. Niesvisky, et al. (1983). “Administration of agonistic and antagonistic analogues of LH-RH induce anovulation in Macaca fasicularis.” Contraception 27(6): 619-626. Satoru Oneda, T. I., Katsumi Hamana (1996). “Ovarian Response to Exogenous Gonadotropins in Infant Cynomolgus Monkeys” International Journal of Toxicology, 15(3): 194-204). The pharmacodynamic and pharmacokinetic effect of intravaginally administered dosages of the aromatase inhibitor anastrozole was studied over the duration of a menstrual cycle by inserting a vaginal ring (IVR) having three different release rates. Among other things, the influence on the pituitary-ovarian axis was studied by determining the hormones estradiol, FSH, progesterone (the blood collections required for this were carried out over the entire experimental period; on day 1, four collections [0 h, 1 h, 3 h, 6 h after insertion of the IVR]; 1 collection each on days 2 and 3; after this time point, further collections followed on every 3rd day) and by ultrasound scans of the ovary (2× per week). Hormone determination was carried out according to the instructions provided by the supplier (estradiol [Siemens/DPC], progesterone [Beckmann-Culter/DSL], FSH [SHG]). An IVR having an initial in vitro release of 0 μg/day (placebo, no anastrozole), 390 μg/day, 85 μg/day or 27 μg/day was inserted into five animals per group one to three days after the last day of menstruation. Animals having irregular cycles were excluded from the experiment.

ovary = assay: IVR study in cynomolgus monkeys: ultrasound scans of the ovary; type: in vivo, cynomolgus monkey; settings: for Ovarian cysts (ultrasound): cycle days 1-26
Excerpt: as §1

[2] = Plasma protein binding by equilibrium dialysis, cynomolgus monkey plasma; type: in vitro ADME; settings: cynomolgus monkey, plasma, seven hours at 37° C., read-out: Plasma protein binding [free fraction, fu]
plasma protein [3] = assay: as above; type: in vitro ADME; settings: seven hours at 37° C.
[4] = Plasma protein binding by equilibrium dialysis, human plasma; type: in vitro ADME; settings: human, plasma, seven hours at 37° C., read-out: Plasma protein binding [free fraction, fu]
plasma protein [5] = assay: as above; type: in vitro ADME; settings: seven hours at 37° C.
in vivo = settings: female, cynomolgus monkey, plasma, iv, 0.2 mg/kg
systemic estrogen levels = settings: 1 mg/day, post-menopausal women; cited from earlier work
ovarian stimulation = settings: applied orally; cited from earlier work
[6] = Estimation of IVR release rate and serum level for human application
Description: Subsequently, an estimation was made of the in vitro IVR release rate of an IVR for human application, which is necessary to achieve serum levels which led to a lowering of estradiol in the monkeys. […] The corresponding effective serum concentration in humans is estimated to be 9 μg/l, taking into account species-specific plasma protein binding, according to equation (1) below.
The mean in vivo release rate from the IVR which is necessary to achieve a plasma concentration of 9 μg/l in humans is calculated according to equation 2. For this equation, the plasma clearance of anastrozole in humans is required.

[7] = cited from earlier work
[8] = IVR 27 μg/day initial in vitro release
[9] = IVR 85 μg/day initial in vitro release
[10] = IVR 390 μg/day initial in vitro release

Q: Which results are given for `C#C[C@]1(OC(C)=O)CC[C@H]2[C@@H]3CCC4=CC(=NO)CC[C@@H]4[C@H]3CC[C@@]21CC` (mixture of isomers) [Norgestimate]?
A: Ovulation inhibition dose (ovulation; Neumann et al): 200 μg/day p.o.; Ovulation inhibition dose (ovulation; Taubert & Kuhl): 200 μg/day p.o.

Q: Which Ovulation inhibition dose (ovulation; Taubert & Kuhl) does the source give for `C#C[C@]1(O)CC[C@H]2[C@@H]3CCC4=CC(=O)CC[C@@H]4[C@H]3C(=C)C[C@@]21CC` [3-Keto-Desogestrel] here?
A: 60 μg/day p.o.

Q: Which “in vitro/in vivo correction factor” value [1] does the source give for `CC(C)(C#N)c1cc(Cn2cncn2)cc(C(C)(C)C#N)c1` [Anastrozole, anastrozole] here?
A: 1.1

Q: What about the “estradiol levels during the follicular phase compared to the placebo group” value (pituitary-ovarian axis; 390 μg per day initial release, P value <0.0478) of the same compound?
A: lowers the estradiol levels significantly; also recorded: significant fall during the follicular phase

Q: What about the “E2 AUC (cycle days 1-26)” value (pituitary-ovarian axis; [8]) of the same compound?
A: 4862 ± 1986 pmol/L

Q: What about the “E2 AUC (follicular, cycle days 1-17)” value (pituitary-ovarian axis; [8]) of the same compound?
A: 3854 ± 927.5 pmol/L/day

Q: What about the “E2 AUC (luteal, cycle days 17-26)” value (pituitary-ovarian axis; [8]) of the same compound?
A: 403.2 ± 169.7 pmol/L

Q: And the “FSH Mean level/day without preovulatory maximum” value (pituitary-ovarian axis; [8])?
A: 5.52 ± 3.07 µg/L

Q: And the “Progesterone Mean level/day Follicular phase” value (pituitary-ovarian axis; [8])?
A: 5.57 ± 5.11 nmol/L

Q: And the “Progesterone Mean level/day Luteal phase” value (pituitary-ovarian axis; [8])?
A: 91.92 ± 52.78 nmol/L

Q: And the “E2 AUC (cycle days 1-26)” value (pituitary-ovarian axis; [9])?
A: 4126 ± 2063 pmol/L

Q: What about the “E2 AUC (follicular, cycle days 1-17)” value (pituitary-ovarian axis; [9]) of the same compound?
A: 3235 ± 1101 pmol/L/day

Q: And the “E2 AUC (luteal, cycle days 17-26)” value (pituitary-ovarian axis; [9])?
A: 605.1 ± 264.1 pmol/L

Q: What about the “FSH Mean level/day without preovulatory maximum” value (pituitary-ovarian axis; [9]) of the same compound?
A: 4.90 ± 2.58 µg/L

Q: What about the “Progesterone Mean level/day Follicular phase” value (pituitary-ovarian axis; [9]) of the same compound?
A: 6.58 ± 3.91 nmol/L

Q: What about the “Progesterone Mean level/day Luteal phase” value (pituitary-ovarian axis; [9]) of the same compound?
A: 60.02 ± 22.65 nmol/L

Q: What about the “E2 AUC (cycle days 1-26)” value (pituitary-ovarian axis; [10]) of the same compound?
A: 2784 ± 999.8 pmol/L

Q: And the “E2 AUC (follicular, cycle days 1-17)” value (pituitary-ovarian axis; [10])?
A: 1978 ± 350.6 pmol/L/day

Q: What about the “E2 AUC (luteal, cycle days 17-26)” value (pituitary-ovarian axis; [10]) of the same compound?
A: 342.9 ± 135.2 pmol/L

Q: What about the “FSH Mean level/day without preovulatory maximum” value (pituitary-ovarian axis; [10]) of the same compound?
A: 4.83 ± 2.91 µg/L

Q: What about the “Progesterone Mean level/day Follicular phase” value (pituitary-ovarian axis; [10]) of the same compound?
A: 4.58 ± 2.64 nmol/L

Q: And the “Progesterone Mean level/day Luteal phase” value (pituitary-ovarian axis; [10])?
A: 92.88 ± 55.50 nmol/L

Q: What about the “counterregulation by the pituitary-ovarian axis” value (pituitary-ovarian axis; at the dosages used (27, 85, 390 μg/day), compared to placebo) of the same compound?
A: fails to occur

Q: What about the “Ovarian cysts (ultrasound)” value (ovary; [8]) of the same compound?
A: None

Q: What about the “Ovarian cysts (ultrasound)” value (ovary; [9]) of the same compound?
A: None

Q: What about the “Ovarian cysts (ultrasound)” value (ovary; [10]) of the same compound?
A: None

Q: And the “formation of ovarian cysts” value (ovary; at the dosages used (27, 85, 390 μg/day))?
A: no formation of ovarian cysts

Q: And the fraction unbound at 7 h [2]?
A: 0.52

Q: And the “Plasma protein binding [free fraction, fu]” value (plasma protein [3])?
A: 34%

Q: What about the fraction unbound at 7 h [4] of the same compound?
A: 0.34

Q: What about the “Plasma protein binding [free fraction, fu]” value (plasma protein [5]) of the same compound?
A: 52%

Q: What about the clearance (in vivo) of the same compound?
A: 9.67 mL/min/kg

Q: And the “reduction of systemic estrogen levels” value (systemic estrogen levels)?
A: more than 85%

Q: And the “oral dosage at which ovarian stimulation can occur” value (ovarian stimulation)?
A: 1 mg

Q: And the “initial in vitro release rate, for humans” value ([6]; […])?
A: about 350 μg per day

Q: And the “Calculated initial in vitro IVR release rate (in buffer) with a decreasing release rate” value ([6]; decrease 32% in 4 weeks, human dose)?
A: ≈350 μg/day/60 kg patient

Q: And the “corresponding effective serum concentration in humans” value ([6]; from monkey Css 5.9 μg/l, corrected for species-specific plasma protein binding)?
A: 9 µg/L

Q: What about the “constant in vitro release rate in buffer, for humans” value ([6]; in vitro/in vivo correction factor 1.1) of the same compound?
A: 270 µg/day

Q: And the “human in vivo release rate, kept constant” value ([6]; to achieve levels that lowered estradiol in the monkeys)?
A: 246 µg/day

Q: And the “Calculated constant in vitro IVR release rate (in buffer)” value ([6]; to maintain in humans plasma levels of the effective dose in cynomolgus monkeys)?
A: ≈270 μg/day/60 kg patient

Q: What about the “Calculated constant in vivo IVR release rate in humans” value ([6]; to maintain plasma levels of the effective dose in cynomolgus monkeys) of the same compound?
A: ≈250 μg/day/60 kg patient

Q: And the “CLpl (CL/F)” value ([7]; Human, oral administration)?
A: 0.33 mL/min/kg

Q: What about the “oral bioavailability (F)” value ([7]; humans) of the same compound?
A: approximately 1

Q: With `CC(=O)O[C@]1(C(C)=O)CC[C@H]2[C@@H]3C=C(Cl)C4=CC(=O)CC[C@]4(C)[C@H]3CC[C@@]21C` [Chlormanidone acetate] as the compound, how does the Ovulation inhibition dose (ovulation; Neumann et al) read?
A: 1500-2000 μg/day p.o.

Q: What about the Ovulation inhibition dose (ovulation; Taubert & Kuhl) of the same compound?
A: 1700 μg/day p.o.

Q: With `CC(=O)O[C@]1(C(C)=O)CC[C@H]2[C@@H]3C=C(Cl)C4=CC(=O)[C@@H]5C[C@@H]5[C@]4(C)[C@H]3CC[C@@]21C` [Cyproterone acetate] as the compound, how does the Ovulation inhibition dose (ovulation; Neumann et al) read?
A: 1000 μg/day p.o.

Q: And the Ovulation inhibition dose (ovulation; Taubert & Kuhl)?
A: 1000 μg/day p.o.

Q: With `C#C[C@]1(O)CC[C@H]2[C@@H]3CCC4=CCCC[C@@H]4[C@H]3C(=C)C[C@@]21CC` [Desogestrel] as the compound, how does the Ovulation inhibition dose (ovulation; Neumann et al) read?
A: 60 μg/day p.o.

Q: And the Ovulation inhibition dose (ovulation; Taubert & Kuhl)?
A: 60 μg/day p.o.

Q: For `C[C@]12CCC3=C4CCC(=O)C=C4CC[C@H]3[C@@H]1CC[C@@]2(O)CC#N` [Dienogest], which Ovulation inhibition dose (ovulation; Neumann et al) is on record?
A: 1000 μg/day p.o.

Q: For `C[C@]12CCC(=O)C=C1[C@@H]1C[C@@H]1[C@H]1[C@@H]3[C@@H]4C[C@@H]4[C@@]4(CCC(=O)O4)[C@@]3(C)CC[C@@H]12` [Drospirenone], which Ovulation inhibition dose (ovulation; Neumann et al) is on record?
A: 2000 μg/day p.o.

Q: What does the source list for `C#C[C@]1(O)C=C[C@H]2[C@@H]3CCC4=CC(=O)CC[C@@H]4[C@H]3CC[C@@]21CC` [Gestodene]?
A: Ovulation inhibition dose (ovulation; Neumann et al): 30 μg/day p.o.; Ovulation inhibition dose (ovulation; Taubert & Kuhl): 30 μg/day p.o.

Q: With `N#Cc1ccc(C(c2ccc(C#N)cc2)n2cncn2)cc1` [Letrozole, letrozole] as the compound, how does the “oral dosage at which ovarian stimulation can occur” value (ovarian stimulation) read?
A: 2.5 mg

Q: Which results are given for `C#C[C@]1(O)CC[C@H]2[C@@H]3CCC4=CCCC[C@@H]4[C@H]3CC[C@@]21C` [Lynestrenol]?
A: Ovulation inhibition dose (ovulation; Neumann et al): 2000 μg/day p.o.; Ovulation inhibition dose (ovulation; Taubert & Kuhl): 2000 μg/day p.o.

Q: Which Ovulation inhibition dose (ovulation; Neumann et al) does the source give for `CC(=O)O[C@]1(C(C)=O)CC[C@H]2[C@@H]3C[C@H](C)C4=CC(=O)CC[C@]4(C)[C@H]3CC[C@@]21C` [Medroxyprogesterone acetate] here?
A: 10 μg/day p.o.

Q: With `C#C[C@]1(OC(C)=O)CC[C@H]2[C@@H]3CCC4=CC(=O)CC[C@@H]4[C@H]3CC[C@@]21C` [Norethisterone acetate] as the compound, how does the Ovulation inhibition dose (ovulation; Neumann et al) read?
A: 500 μg/day p.o.

Q: With `C#C[C@]1(O)CC[C@H]2[C@@H]3CCC4=CC(=O)CC[C@@H]4[C@H]3CC[C@@]21C` [Norethisterone] as the compound, how does the Ovulation inhibition dose (ovulation; Neumann et al) read?
A: 500 μg/day p.o.

Q: What about the Ovulation inhibition dose (ovulation; Taubert & Kuhl) of the same compound?
A: 400 μg/day p.o.
